The values below come from article PMC7354218 (ACS infectious diseases, 2020).

The target of data set [1] is NpsA. The format is binding, Klebsiella oxytoca. The settings on record: pH 6.8.
In data set [2] the target is NpsA. The format is biochemical, Klebsiella oxytoca. The settings on record: read-out: appKi.
In data set [3] the test system is K. oxytoca. The format is cell-based, Klebsiella oxytoca.
The subject of data set [4] is K. oxytoca strain MIT 10-5243. The format is cell-based, Klebsiella oxytoca. The settings on record: read-out: IC50 for inhibition of tilivalline production.
The subject of data set [5] is NpsA. The format is biochemical, Klebsiella oxytoca.
Data set [6] relates to NpsB. In kind it is biochemical, Klebsiella oxytoca. The settings on record: pH 8.
For data set [7], the target named is T1, NpsA (wt-NpsA) (Klebsiella oxytoca, UniProt A0A291NW45). Briefly: biochemical. The format is binding. The settings on record: n = 3.
T1 sequence (A0A291NW45 1-506): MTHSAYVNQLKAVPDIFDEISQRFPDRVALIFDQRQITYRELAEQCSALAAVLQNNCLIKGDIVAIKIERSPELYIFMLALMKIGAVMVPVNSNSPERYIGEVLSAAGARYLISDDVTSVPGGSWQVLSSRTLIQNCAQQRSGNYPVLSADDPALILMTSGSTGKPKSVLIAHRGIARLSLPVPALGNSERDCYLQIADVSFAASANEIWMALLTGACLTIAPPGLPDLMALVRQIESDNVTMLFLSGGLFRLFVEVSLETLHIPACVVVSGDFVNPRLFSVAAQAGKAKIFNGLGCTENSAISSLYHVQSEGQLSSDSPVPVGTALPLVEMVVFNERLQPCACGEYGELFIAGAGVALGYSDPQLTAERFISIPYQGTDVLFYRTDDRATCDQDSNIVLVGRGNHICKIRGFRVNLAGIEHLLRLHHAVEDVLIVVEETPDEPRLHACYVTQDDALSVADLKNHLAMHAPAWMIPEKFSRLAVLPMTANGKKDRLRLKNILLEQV
T1 sequence (A0A291NW67 1-76 partner): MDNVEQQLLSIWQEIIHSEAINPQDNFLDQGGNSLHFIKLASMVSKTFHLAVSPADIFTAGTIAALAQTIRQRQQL
Data set [8] has as its target T1, NpsA (wt-NpsA). Put plainly: biochemical. The settings on record: n = 3.
Data set [9] concerns Nc1ncnc2c1ncn2[C@@H]1O[C@H](COP(=O)(O)OP(=O)(O)OP(=O)(O)O)[C@@H](O)[C@H]1O. Put plainly: purified protein, by the assay type. The settings on record: pH 8.0.
In data set [10] the test system is O=C(O)c1cccc(O)c1. Briefly: purified protein, by the assay type. The settings on record: pH 8.0.
Data set [11] concerns Nc1c(O)cccc1C(=O)O. Put plainly: purified protein, by the assay type. The settings on record: pH 8.0.

Values joined by “and” are separate entries in the source; they are usually repeats but may differ in a detail not shown here. Equal entries are not always repeated. Structures can show the parent of a compound that is named as a salt. Where two headings read alike, the source gives them in different places.

For the compound “5′-[N-(2-Amino-3-hydroxybenzoyl)sulfamoyl]amino-5′-deoxyadenosine triethylammonium salt [Compound 5]”, the Kd in [1] is 0.029 µM and 0.0293 µM. Further, the Ki in [2] came to 0.054 µM. For the same compound, in data set [3], the “growth inhibition of K. oxytoca” value is listed as “does not inhibit growth”.
Regarding “5′-[N-(2-Aminobenzoyl)sulfamoyl]amino-5′-deoxyadenosine triethylammonium salt [Compound 9]”, in data set [1], the Kd turned out to be 0.485 µM. In addition, the Ki in data set [2] was 1.2 µM.
Take “5′-[N-(3-Hydroxybenzoyl)sulfamoyl]amino-5′-deoxyadenosine triethylammonium salt [Compound 8]”: the Kd in data set [1] stood at 0.112 µM. Besides, the Ki in [2] is 0.23 µM. Further, in data set [3], the “growth inhibition of K. oxytoca” value is “no observable growth inhibition”. In addition, the IC50 in data set [4] turned out to be 29 µM.
Turning to `Nc1c(O)cccc1C(=O)O` [3-Hydroxyanthranilic acid], the “kcat (apparent)” value in data set [5] (pH 8) came out at 0.78 ± 0.01 s⁻¹. The Km in data set [5] (read-out: KM (apparent), pH 8) worked out at 63 µM.
`O=C(O)c1cccc(O)c1` [3-Hydroxybenzoic acid]: the “fold decrease in specificity constant (kcat/KM)” value in [5] is listed as 200 fold. For the same compound, the “kcat (apparent)” value in [5] (pH 8) was found to be 0.35 ± 0.07 s⁻¹. Further, the Km in data set [5] (read-out: KM (apparent), pH 8) turned out to be 4000 µM.
`Nc1ncnc2c1ncn2[C@@H]1O[C@H](COP(=O)(O)OP(=O)(O)OP(=O)(O)O)[C@@H](O)[C@H]1O` [ATP, adenosine triphosphate]: the “kcat (apparent)” value in data set [6] stood at 0.056 ± 0.002 s⁻¹; in data set [5] (pH 8), 0.82 ± 0.01 s⁻¹. Besides, the Km worked out at 21 µM in data set [6] (read-out: KM (apparent)) and 15 µM in [5] (read-out: KM (apparent), pH 8).
With `Nc1ccccc1C(=O)O` [Anthranilic acid], in data set [5], the Km worked out at 854 µM and the “fold decrease in specificity constant (kcat/KM)” value was found to be 52 fold. The “kcat (apparent)” value in [5] (pH 8) was 0.29 ± 0.01 s⁻¹. Further, the Michaelis constant (Km) in data set [5] (read-out: KM (apparent), pH 8) worked out at 850 µM.
As for `O=C(O)[C@@H]1CCCN1` [L-Proline], the “kcat (apparent)” value in data set [6] was 0.037 ± 0.002 s⁻¹.
As for `Nc1c(O)cccc1C(=O)NS(=O)(=O)NC[C@H]1O[C@@H](n2cnc3c(N)ncnc32)[C@H](O)[C@@H]1O` [compound 5, 3-hydroxyanthraniloyl-AMS; 5′-[N-(2-Amino-3-hydroxybenzoyl)sulfamoyl]amino-5′-deoxyadenosine triethylammonium salt], the Kd in data set [7] was 0.0293 µM. The same compound returned a Ki in data set [8] of 0.054 µM.
`Nc1ncnc2c1ncn2[C@@H]1O[C@H](CNS(=O)(=O)NC(=O)c2cccc(O)c2)[C@@H](O)[C@H]1O` [compound 8, 3-hydroxybenzoyl-AMS; 5′-[N-(3-Hydroxybenzoyl)sulfamoyl]amino-5′-deoxyadenosine triethylammonium salt] had a Kd in [7] of 0.112 µM. Besides, the Ki in data set [8] amounted to 0.23 µM.
The like results for `Nc1ccccc1C(=O)NS(=O)(=O)NC[C@H]1O[C@@H](n2cnc3c(N)ncnc32)[C@H](O)[C@@H]1O` [compound 9, anthraniloyl-AMS; 5′-[N-(2-Aminobenzoyl)sulfamoyl]amino-5′-deoxyadenosine triethylammonium salt] were, in that order, 0.485 µM and 1.2 µM.
For NpsA (wt-NpsA) (Klebsiella oxytoca), in data set [9], the Km result is on record as “(1.5 ± 0.1) × 10^1 uM”, the kcat stood at 0.82 ± 0.01 s⁻¹ and the kcat/Km stood at 56000 ± 4000 M⁻¹ s⁻¹. In data set [10], the Km entry is on record as “(4.0 ± 0.9) × 10^3 uM”, the kcat amounted to 0.35 ± 0.07 s⁻¹ and the kcat/Km amounted to 88 ± 26 M⁻¹ s⁻¹. Moreover, in data set [11], the Km entry is “(6.3 ± 0.2) × 10^1 uM”, the kcat was determined as 0.78 ± 0.01 s⁻¹ and the kcat/Km was 18000 ± 1000 M⁻¹ s⁻¹.
